Measurements as given in the kinase profiling compilation of Christmann-Franck et al. (2016).

Assays:
Assay in all cases: KINOMEscan competition binding
Settings in all cases: compound 2.0 µM
MUSK (human) = MUSK (human) (UniProt O15146)
[1] = target: JAK1 JH2 pseudokinase (human) (UniProt P23458)
TAOK2 (human) = TAOK2 (human) (UniProt Q9UL54)
RIOK2 (human) = RIOK2 (human) (UniProt Q9BVS4)
CDKL3 (human) = CDKL3 (human) (UniProt Q8IVW4)
PTK2 (human) = PTK2 (human) (UniProt Q05397)
[2] = tested on: EGFR (human), P00533 [A750P; 747-749 del]
CLK2 (human) = CLK2 (human) (UniProt P49760)
CSNK2A2 (human) = CSNK2A2 (human) (UniProt P19784)
CSNK2A2 (human), sequence (P19784 whole entry, looked up): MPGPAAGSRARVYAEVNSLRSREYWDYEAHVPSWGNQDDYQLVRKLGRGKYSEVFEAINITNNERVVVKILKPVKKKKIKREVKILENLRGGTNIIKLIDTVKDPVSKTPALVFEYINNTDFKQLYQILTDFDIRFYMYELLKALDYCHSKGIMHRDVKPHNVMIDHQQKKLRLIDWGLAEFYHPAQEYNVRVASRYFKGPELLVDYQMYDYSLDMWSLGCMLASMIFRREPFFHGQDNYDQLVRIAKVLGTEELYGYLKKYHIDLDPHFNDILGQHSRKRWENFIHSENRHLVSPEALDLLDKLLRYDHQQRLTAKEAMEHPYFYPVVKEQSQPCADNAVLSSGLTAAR

GSK3B (human) = GSK3B (human) (UniProt P49841)
FGFR3 (human) = FGFR3 (human) (UniProt P22607)
SRMS (human) = SRMS (human) (UniProt Q9H3Y6)
TEC (human) = TEC (human) (UniProt P42680)
NEK2 (human) = NEK2 (human) (UniProt P51955)
MAPKAPK2 (human) = MAPKAPK2 (human) (UniProt P49137)
TNNI3K (human) = TNNI3K (human) (UniProt Q59H18)
TLK2 (human) = TLK2 (human) (UniProt Q86UE8)
TLK2 (human), sequence (Q86UE8 whole entry, looked up): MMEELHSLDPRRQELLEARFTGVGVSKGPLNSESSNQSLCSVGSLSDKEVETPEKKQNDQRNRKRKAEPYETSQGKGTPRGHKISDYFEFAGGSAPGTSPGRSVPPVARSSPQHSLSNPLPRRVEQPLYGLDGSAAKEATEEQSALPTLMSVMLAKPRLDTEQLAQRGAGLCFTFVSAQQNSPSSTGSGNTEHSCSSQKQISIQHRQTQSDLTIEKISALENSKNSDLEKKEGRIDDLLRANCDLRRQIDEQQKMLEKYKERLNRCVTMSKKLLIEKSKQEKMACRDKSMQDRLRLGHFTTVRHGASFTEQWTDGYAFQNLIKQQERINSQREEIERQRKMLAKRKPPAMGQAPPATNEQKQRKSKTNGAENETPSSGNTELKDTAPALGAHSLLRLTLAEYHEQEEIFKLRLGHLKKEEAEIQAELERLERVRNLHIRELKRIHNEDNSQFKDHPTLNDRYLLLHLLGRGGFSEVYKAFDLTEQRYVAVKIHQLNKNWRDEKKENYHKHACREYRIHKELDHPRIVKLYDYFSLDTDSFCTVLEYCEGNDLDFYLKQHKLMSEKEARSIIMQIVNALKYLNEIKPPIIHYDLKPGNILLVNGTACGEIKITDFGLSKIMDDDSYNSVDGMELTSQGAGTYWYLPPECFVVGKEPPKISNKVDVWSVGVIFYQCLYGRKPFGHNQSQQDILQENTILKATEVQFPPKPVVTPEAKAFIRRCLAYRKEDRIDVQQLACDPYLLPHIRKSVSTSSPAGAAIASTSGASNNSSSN

MAPK11 (human) = MAPK11 (human) (UniProt Q15759)
CHEK2 (human) = CHEK2 (human) (UniProt O96017)
LIMK1 (human) = LIMK1 (human) (UniProt P53667)
DDR1 (human) = DDR1 (human) (UniProt Q08345)
FLT4 (human) = FLT4 (human) (UniProt P35916)
DCLK3 (human) = DCLK3 (human) (UniProt Q9C098)
STK16 (human) = STK16 (human) (UniProt O75716)
STK16 (human), sequence (O75716 whole entry, looked up): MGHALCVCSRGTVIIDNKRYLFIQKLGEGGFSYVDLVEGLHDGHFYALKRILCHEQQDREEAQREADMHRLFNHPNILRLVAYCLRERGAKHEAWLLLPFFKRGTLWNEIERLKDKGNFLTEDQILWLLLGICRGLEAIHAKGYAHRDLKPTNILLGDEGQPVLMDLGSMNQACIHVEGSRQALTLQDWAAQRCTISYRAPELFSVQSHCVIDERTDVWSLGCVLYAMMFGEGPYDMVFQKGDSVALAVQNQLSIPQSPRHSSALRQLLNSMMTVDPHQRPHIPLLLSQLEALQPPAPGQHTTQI

GRK7 (human) = GRK7 (human) (UniProt Q8WTQ7)
EPHA2 (human) = EPHA2 (human) (UniProt P29317)
MAP2K3 (human) = MAP2K3 (human) (UniProt P46734)
EPHB3 (human) = EPHB3 (human) (UniProt P54753)
BRSK1 (human) = BRSK1 (human) (UniProt Q8TDC3)
BRSK1 (human), sequence (Q8TDC3 whole entry, looked up): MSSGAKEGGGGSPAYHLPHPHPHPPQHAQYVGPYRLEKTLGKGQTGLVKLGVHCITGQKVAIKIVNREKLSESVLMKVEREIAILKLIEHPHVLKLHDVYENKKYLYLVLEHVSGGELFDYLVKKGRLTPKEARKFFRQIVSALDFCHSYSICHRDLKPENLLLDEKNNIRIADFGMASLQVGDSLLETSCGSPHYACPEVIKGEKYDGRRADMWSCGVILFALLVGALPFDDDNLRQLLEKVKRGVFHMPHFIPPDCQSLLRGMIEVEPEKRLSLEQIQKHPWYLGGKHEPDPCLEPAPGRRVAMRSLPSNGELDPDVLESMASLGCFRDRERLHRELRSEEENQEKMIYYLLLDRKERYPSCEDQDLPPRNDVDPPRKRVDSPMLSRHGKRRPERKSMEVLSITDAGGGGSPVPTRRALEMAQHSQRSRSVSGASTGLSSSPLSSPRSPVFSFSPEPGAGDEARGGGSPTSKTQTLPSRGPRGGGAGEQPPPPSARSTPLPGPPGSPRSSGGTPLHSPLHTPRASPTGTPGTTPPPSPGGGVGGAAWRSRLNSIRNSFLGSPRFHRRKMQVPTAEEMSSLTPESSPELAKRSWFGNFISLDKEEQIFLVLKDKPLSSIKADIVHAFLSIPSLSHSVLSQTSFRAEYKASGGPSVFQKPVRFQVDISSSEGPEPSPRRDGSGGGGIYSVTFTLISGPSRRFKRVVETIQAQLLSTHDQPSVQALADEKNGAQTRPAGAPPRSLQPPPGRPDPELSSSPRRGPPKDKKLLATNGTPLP

PRKX (human) = PRKX (human) (UniProt P51817)
NEK7 (human) = NEK7 (human) (UniProt Q8TDX7)
[3] = tested on: PIK3CA (human), P42336 [H1047Y]
PAK7 (human) = PAK7 (human) (UniProt Q9P286)
LTK (human) = LTK (human) (UniProt P29376)
MAP3K2 (human) = MAP3K2 (human) (UniProt Q9Y2U5)
MAP3K2 (human), sequence (Q9Y2U5 whole entry, looked up): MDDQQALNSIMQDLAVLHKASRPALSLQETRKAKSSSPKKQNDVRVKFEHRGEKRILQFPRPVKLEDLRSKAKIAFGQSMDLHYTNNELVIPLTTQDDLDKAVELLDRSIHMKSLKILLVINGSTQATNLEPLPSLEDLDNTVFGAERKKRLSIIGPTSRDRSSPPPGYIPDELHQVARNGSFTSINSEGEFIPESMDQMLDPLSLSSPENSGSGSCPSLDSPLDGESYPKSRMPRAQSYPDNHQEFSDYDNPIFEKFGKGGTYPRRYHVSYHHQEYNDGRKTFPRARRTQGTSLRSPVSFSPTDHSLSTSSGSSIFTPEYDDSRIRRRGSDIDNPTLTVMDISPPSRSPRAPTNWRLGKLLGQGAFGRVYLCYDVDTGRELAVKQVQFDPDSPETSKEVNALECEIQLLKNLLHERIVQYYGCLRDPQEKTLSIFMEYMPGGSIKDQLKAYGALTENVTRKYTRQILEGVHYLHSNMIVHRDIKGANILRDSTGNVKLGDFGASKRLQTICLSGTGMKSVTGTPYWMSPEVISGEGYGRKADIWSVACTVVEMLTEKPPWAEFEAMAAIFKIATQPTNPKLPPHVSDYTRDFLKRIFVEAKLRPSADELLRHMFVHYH

KDR (human) = KDR (human) (UniProt P35968)
KDR (human), sequence (P35968 whole entry, looked up): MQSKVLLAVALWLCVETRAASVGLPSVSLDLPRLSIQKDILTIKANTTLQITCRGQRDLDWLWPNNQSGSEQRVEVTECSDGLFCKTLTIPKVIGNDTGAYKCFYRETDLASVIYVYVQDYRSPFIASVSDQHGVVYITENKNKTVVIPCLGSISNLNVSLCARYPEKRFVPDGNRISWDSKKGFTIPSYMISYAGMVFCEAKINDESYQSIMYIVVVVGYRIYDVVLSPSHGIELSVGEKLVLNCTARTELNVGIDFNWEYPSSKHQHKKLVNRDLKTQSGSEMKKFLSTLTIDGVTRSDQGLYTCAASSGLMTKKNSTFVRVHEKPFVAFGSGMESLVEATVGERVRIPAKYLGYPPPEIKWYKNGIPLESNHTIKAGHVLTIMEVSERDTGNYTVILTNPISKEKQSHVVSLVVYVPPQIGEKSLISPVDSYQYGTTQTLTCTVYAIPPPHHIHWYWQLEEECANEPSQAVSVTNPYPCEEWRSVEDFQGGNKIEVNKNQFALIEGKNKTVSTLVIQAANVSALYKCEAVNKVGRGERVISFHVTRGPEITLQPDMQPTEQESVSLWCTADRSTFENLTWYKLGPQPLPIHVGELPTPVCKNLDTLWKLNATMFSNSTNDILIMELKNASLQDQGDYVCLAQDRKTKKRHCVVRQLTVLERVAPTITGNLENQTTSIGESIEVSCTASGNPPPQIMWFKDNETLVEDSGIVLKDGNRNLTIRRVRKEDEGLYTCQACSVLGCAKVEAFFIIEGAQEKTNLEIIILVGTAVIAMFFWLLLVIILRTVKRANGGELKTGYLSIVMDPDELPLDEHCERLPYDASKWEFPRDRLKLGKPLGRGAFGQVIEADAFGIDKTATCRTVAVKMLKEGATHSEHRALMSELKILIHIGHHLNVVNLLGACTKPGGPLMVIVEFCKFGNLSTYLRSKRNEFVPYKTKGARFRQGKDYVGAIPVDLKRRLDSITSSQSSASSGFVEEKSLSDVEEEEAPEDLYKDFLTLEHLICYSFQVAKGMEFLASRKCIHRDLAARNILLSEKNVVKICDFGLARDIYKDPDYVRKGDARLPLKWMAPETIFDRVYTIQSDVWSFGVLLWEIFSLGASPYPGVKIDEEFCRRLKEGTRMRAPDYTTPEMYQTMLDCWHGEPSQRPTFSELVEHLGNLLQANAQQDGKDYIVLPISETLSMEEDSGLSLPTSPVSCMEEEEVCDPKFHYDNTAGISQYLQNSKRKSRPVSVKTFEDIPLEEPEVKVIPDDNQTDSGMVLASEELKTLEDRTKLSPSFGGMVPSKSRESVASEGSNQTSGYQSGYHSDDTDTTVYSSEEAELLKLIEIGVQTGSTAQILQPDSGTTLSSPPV

[4] = tested on: EGFR (human), P00533 [L858R]
ROCK2 (human) = ROCK2 (human) (UniProt O75116)
RIOK3 (human) = RIOK3 (human) (UniProt O14730)
CHEK1 (human) = CHEK1 (human) (UniProt O14757)
FRK (human) = FRK (human) (UniProt P42685)
[5] = tested on: EGFR (human), P00533 [P753S; 747-752 del]
ACVR1 (human) = ACVR1 (human) (UniProt Q04771)

MUSK (human), sequence (O15146 whole entry, looked up): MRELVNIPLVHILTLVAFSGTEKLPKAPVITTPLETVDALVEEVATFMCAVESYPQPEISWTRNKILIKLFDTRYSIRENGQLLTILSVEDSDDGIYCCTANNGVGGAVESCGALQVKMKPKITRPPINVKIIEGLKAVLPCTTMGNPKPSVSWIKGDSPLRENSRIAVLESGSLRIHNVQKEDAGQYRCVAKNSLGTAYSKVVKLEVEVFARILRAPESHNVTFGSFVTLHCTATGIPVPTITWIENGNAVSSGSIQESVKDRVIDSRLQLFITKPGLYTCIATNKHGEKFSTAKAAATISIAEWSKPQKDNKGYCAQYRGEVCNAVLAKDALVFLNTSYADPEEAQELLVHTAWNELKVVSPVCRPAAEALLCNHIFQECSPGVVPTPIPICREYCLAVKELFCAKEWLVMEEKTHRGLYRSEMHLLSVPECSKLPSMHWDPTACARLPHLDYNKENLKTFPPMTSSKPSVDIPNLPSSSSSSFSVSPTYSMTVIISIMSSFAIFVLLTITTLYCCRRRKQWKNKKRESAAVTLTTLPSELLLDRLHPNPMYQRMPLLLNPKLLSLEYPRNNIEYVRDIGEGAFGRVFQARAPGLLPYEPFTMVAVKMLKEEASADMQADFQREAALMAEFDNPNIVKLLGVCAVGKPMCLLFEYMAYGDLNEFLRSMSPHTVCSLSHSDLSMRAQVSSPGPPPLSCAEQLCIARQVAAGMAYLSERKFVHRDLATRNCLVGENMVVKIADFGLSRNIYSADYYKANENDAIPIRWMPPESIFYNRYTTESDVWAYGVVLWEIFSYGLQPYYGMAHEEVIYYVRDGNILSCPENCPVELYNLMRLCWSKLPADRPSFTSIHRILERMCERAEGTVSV

N#Cc1ccc2ncnc(NCCc3ccc4ccccc4c3)c2c1
kinase still bound, per cent of control (MUSK (human)): 100% | kinase still bound, per cent of control [1]: 100% | kinase still bound, per cent of control (TAOK2 (human)): 83% | kinase still bound, per cent of control (RIOK2 (human)): 94% | kinase still bound, per cent of control (CDKL3 (human)): 100% | kinase still bound, per cent of control (PTK2 (human)): 88% | kinase still bound, per cent of control [2]: 83% | kinase still bound, per cent of control (CLK2 (human)): 74% | kinase still bound, per cent of control (CSNK2A2 (human)): 74% | kinase still bound, per cent of control (GSK3B (human)): 89% | kinase still bound, per cent of control (FGFR3 (human)): 100% | kinase still bound, per cent of control (SRMS (human)): 84% | kinase still bound, per cent of control (TEC (human)): 100% | kinase still bound, per cent of control (NEK2 (human)): 100% | kinase still bound, per cent of control (MAPKAPK2 (human)): 100% | kinase still bound, per cent of control (TNNI3K (human)): 100% | kinase still bound, per cent of control (TLK2 (human)): 94% | kinase still bound, per cent of control (MAPK11 (human)): 100% | kinase still bound, per cent of control (CHEK2 (human)): 62% | kinase still bound, per cent of control (LIMK1 (human)): 100% | kinase still bound, per cent of control (DDR1 (human)): 96% | kinase still bound, per cent of control (FLT4 (human)): 100% | kinase still bound, per cent of control (DCLK3 (human)): 99% | kinase still bound, per cent of control (STK16 (human)): 51% | kinase still bound, per cent of control (GRK7 (human)): 100% | kinase still bound, per cent of control (EPHA2 (human)): 100% | kinase still bound, per cent of control (MAP2K3 (human)): 86% | kinase still bound, per cent of control (EPHB3 (human)): 100% | kinase still bound, per cent of control (BRSK1 (human)): 100% | kinase still bound, per cent of control (PRKX (human)): 93% | kinase still bound, per cent of control (NEK7 (human)): 100% | kinase still bound, per cent of control [3]: 78% | kinase still bound, per cent of control (PAK7 (human)): 100% | kinase still bound, per cent of control (LTK (human)): 99% | kinase still bound, per cent of control (MAP3K2 (human)): 80% | kinase still bound, per cent of control (KDR (human)): 86% | kinase still bound, per cent of control [4]: 96% | kinase still bound, per cent of control (ROCK2 (human)): 92% | kinase still bound, per cent of control (RIOK3 (human)): 100% | kinase still bound, per cent of control (CHEK1 (human)): 97% | kinase still bound, per cent of control (FRK (human)): 100% | kinase still bound, per cent of control [5]: 89% | kinase still bound, per cent of control (ACVR1 (human)): 100%
